Earlier results on 3 molecules are cited in US11208393B2, “Methods for extraction, processing, and purification of a selected family of target compounds from cannabis” (Nectar Health Sciences Inc., priority 2019, dated 2021).

For this series the following is noted: of the protonated amine (ammonium ion).

With `CN(C)CCO` [(CH3)2NHCH2OH^+, dimethylethanolamine], the pKa (commonly the negative logarithm of the acid dissociation constant) is reported as 9.3. As for `C1CN2CCN1CC2` [DABCO, 1,4-diazabicyclo[2.2.2]octane], the pKa is recorded as 8.9. Take `CN(C)CCN(C)C` [TMEDA, tetramethylethylenediamine]: the pKa is reported as 9.0.
